Assay results as given in patent US5128398A, “Phenolic compound and its use as stabilizer for butadiene polymer” (Sumitomo Chemical Company, Limited, priority 1987, dated 1992).

Assays:
[1] = Solubility in hydrocarbon solvents at 20° C.; type: physicochemical
From the text: Solubility in hydrocarbon solvents was examined for the compounds II-1 and II-2 of the present invention and for the compounds AO-1 and AO-2 which are structurally similar to the compounds of the present invention. The hydrocarbon solvents used were n-hexane and cyclohexane. (g/100 g solvent)

[2] = U.S. Pat. No. 4,525,514; cited from earlier work

| SMILES | Solubility in Cyclohexane [1] [g/100 g solvent] | Solubility in n-Hexane [1] [g/100 g solvent] | effect as a stabilizer for butadiene polymers (in words) [2] |
| --- | --- | --- | --- |
| C=C(C)C(=O)Oc1c(C(C)c2cc(C(C)(C)CC)cc(C(C)(C)CC)c2O)cc(C(C)(C)CC)cc1C(C)(C)CC (stereo not drawn) [II-2, 2,4-di-t-amyl-6-[1--(3,5-di-t-amyl-2-hydroxyphenyl)ethyl]phenyl methacrylate] | 108 | 65 |  |
| C=CC(=O)Oc1c(C(C)c2cc(C(C)(C)CC)cc(C(C)(C)CC)c2O)cc(C(C)(C)CC)cc1C(C)(C)CC (stereo not drawn) [II-1, 2,4-di-t-amyl-6-[1-(3,5-di-t-amyl-2-hydroxyphenyl)ethyl]phenyl acrylate] | 89 | 55 |  |
| C=CC(=O)Oc1c(Cc2cc(C)cc(C(C)(C)C)c2O)cc(C)cc1C(C)(C)C [AO-1, 2-t-Butyl-6-(3-t-butyl-2-hydroxy-5-methylbenzyl)-4-methylphenyl acrylate] | 4.0 | 1.5 | effective as a stabilizer for butadiene polymers |
| C=CC(=O)Oc1c(C(C)c2cc(C(C)(C)C)cc(C(C)(C)C)c2O)cc(C(C)(C)C)cc1C(C)(C)C (stereo not drawn) [AO-2, 2,4-Di-t-butyl-6-[1-(3,5-di-t-butyl-2-hydroxyphenyl)ethyl]phenyl acrylate] | 2.4 | 1.1 |  |
